Measurements taken from ChEMBL document CHEMBL5126629, “Paradoxical Increase of Permeability and Lipophilicity with the Increasing Topological Polar Surface Area within a Series of PRMT5 Inhibitors” (J Med Chem, 2022).

Tests used:
[1] = target: Protein arginine N-methyltransferase 5 (Homo sapiens, UniProt O14744); test: Inhibition of PRMT5 methyltransferase activity in human MTAP -/- Calu-6 cells assessed as reduction in SmB SDMA levels measured after 2 days by HTRF based assay; assay type: cell-based
Sequence of Protein arginine N-methyltransferase 5 (O14744 whole entry): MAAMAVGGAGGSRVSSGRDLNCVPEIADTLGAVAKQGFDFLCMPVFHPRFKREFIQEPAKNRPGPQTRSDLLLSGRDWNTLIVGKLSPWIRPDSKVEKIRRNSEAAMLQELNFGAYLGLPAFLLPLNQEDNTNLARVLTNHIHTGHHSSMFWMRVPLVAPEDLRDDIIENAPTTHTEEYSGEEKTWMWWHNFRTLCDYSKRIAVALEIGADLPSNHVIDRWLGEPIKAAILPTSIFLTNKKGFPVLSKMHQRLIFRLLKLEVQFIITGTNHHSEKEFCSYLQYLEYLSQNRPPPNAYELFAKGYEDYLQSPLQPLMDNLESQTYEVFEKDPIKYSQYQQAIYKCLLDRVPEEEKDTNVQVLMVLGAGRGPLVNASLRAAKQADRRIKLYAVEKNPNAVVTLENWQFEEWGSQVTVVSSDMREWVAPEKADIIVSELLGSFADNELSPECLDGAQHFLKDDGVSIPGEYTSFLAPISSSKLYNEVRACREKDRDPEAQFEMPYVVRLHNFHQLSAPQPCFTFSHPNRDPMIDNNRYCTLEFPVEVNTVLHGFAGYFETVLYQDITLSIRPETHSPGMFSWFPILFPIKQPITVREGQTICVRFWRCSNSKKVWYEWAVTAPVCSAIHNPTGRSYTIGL

[2] = Lipophilicity, logD of the compound in octanol and phosphate buffer at pH 7.4 incubated for 4 hrs under shaking condition by liquid chromatography tandem mass spectrometry; assay type: physicochemical
[3] = Metabolic stability in human liver microsomes assessed as intrinsic clearance measured upto 30 mins in presence of NADPH by LC/MS/MS analysis; assay type: ADME, Microsome; conditions: read-out: CLH
[4] = Efflux ratio of apparent permeability across […] in MDCK-MDR1 incubated for 120 mins by LC-MS analysis; assay type: ADME, cell-based, Canis lupus familiaris; conditions: dog, mdck-mdr1, 2 h

**Q.** Which IC50 [1] does the source give for Cc1cc2ncc(Cn3c(C(=O)N(C)c4ccccc4)cn(C)c3=O)cc2nc1N here?
**A.** 29 nM

**Q.** What about the logD at 4 h [2] of the same compound?
**A.** 1.1

**Q.** What about the microsomal CLint [3] of the same compound?
**A.** 36 µL/min/mg

**Q.** Which results are given for Cc1cc2ccc(Cn3c(C(=O)N(C)c4ccccc4)cn(C)c3=O)cc2nc1N?
**A.** IC50 [1]: 2 nM; logD at 4 h [2]: 1.6; microsomal CLint [3]: 395 µL/min/mg; Ratio [4]: 35

**Q.** Which IC50 [1] does the source give for Cc1cc2ccc(Cn3c(C(=O)N(C)c4ccccc4)coc3=O)cc2nc1N here?
**A.** 1 nM

**Q.** And the logD at 4 h [2]?
**A.** 1.8

**Q.** What about the microsomal CLint [3] of the same compound?
**A.** 240 µL/min/mg

**Q.** And the Ratio [4]?
**A.** 2

**Q.** Which results are given for Cc1cc2ccc(Cn3c(C(=O)N(C)c4ccccc4)nn(C)c3=O)cc2nc1N?
**A.** IC50 [1]: 2 nM; logD at 4 h [2]: 1.9; microsomal CLint [3]: 97 µL/min/mg; Ratio [4]: 6

**Q.** With Cc1cc2ccc(Cn3c(C(=O)N(C)c4ccccc4)cccc3=O)cc2nc1N as the compound, how does the IC50 [1] read?
**A.** 17 nM

**Q.** What about the logD at 4 h [2] of the same compound?
**A.** 2

**Q.** And the microsomal CLint [3]?
**A.** 422 µL/min/mg

**Q.** And the Ratio [4]?
**A.** 22

**Q.** With Cc1cc2ccc(Cn3c(C(=O)N(C)c4ccccc4)noc3=O)cc2nc1N as the compound, how does the IC50 [1] read?
**A.** 49 nM

**Q.** And the logD at 4 h [2]?
**A.** 2.9

**Q.** And the microsomal CLint [3]?
**A.** > 700 µL/min/mg

**Q.** What about the Ratio [4] of the same compound?
**A.** 1

**Q.** Which IC50 [1] does the source give for Cc1cc2ccc(Cn3c(C(=O)N(C)c4ccccn4)nn(C)c3=O)cc2nc1N here?
**A.** 21 nM

**Q.** What about the logD at 4 h [2] of the same compound?
**A.** 0.9

**Q.** And the microsomal CLint [3]?
**A.** < 25 µL/min/mg

**Q.** And the Ratio [4]?
**A.** 17

**Q.** For Cc1cc2ccc(Cn3nncc3C(=O)N(C)c3ccccc3)cc2nc1N, which IC50 [1] is on record?
**A.** 50 nM

**Q.** What about the logD at 4 h [2] of the same compound?
**A.** 2.1

**Q.** And the microsomal CLint [3]?
**A.** 547 µL/min/mg

**Q.** What about the Ratio [4] of the same compound?
**A.** 3

**Q.** With Cc1cc2ccc(Cn3nccc3C(=O)N(C)c3ncccc3F)cc2nc1N as the compound, how does the IC50 [1] read?
**A.** 14 nM

**Q.** What about the logD at 4 h [2] of the same compound?
**A.** 1.8

**Q.** And the microsomal CLint [3]?
**A.** 89 µL/min/mg

**Q.** And the Ratio [4]?
**A.** 1

**Q.** With Cc1cc2ccc(Cn3c(C(=O)N(C)c4ccccn4)cn(C)c3=O)cc2nc1N as the compound, how does the IC50 [1] read?
**A.** 9 nM

**Q.** And the logD at 4 h [2]?
**A.** 0.8

**Q.** What about the microsomal CLint [3] of the same compound?
**A.** 28 µL/min/mg

**Q.** And the Ratio [4]?
**A.** 14

**Q.** Which IC50 [1] does the source give for Cc1cc2ccc(Cn3c(C(=O)N(C)c4ccccc4)nccc3=O)cc2nc1N here?
**A.** 39 nM

**Q.** And the logD at 4 h [2]?
**A.** 2.1

**Q.** And the microsomal CLint [3]?
**A.** 299 µL/min/mg

**Q.** What about the Ratio [4] of the same compound?
**A.** 8
